For one data set, the target named is T1, 5-HT1A receptors (Homo sapiens, UniProt P08908).
T1 construct: 5-HT1A and 5-HT2A receptors in post-mortem human brain tissue from the hippocampus and frontal cortex, respectively; tissue Edinburgh Sudden Death Brain Bank; host or cells: post-mortem human hippocampus membranes
T1 sequence (P08908 1-422): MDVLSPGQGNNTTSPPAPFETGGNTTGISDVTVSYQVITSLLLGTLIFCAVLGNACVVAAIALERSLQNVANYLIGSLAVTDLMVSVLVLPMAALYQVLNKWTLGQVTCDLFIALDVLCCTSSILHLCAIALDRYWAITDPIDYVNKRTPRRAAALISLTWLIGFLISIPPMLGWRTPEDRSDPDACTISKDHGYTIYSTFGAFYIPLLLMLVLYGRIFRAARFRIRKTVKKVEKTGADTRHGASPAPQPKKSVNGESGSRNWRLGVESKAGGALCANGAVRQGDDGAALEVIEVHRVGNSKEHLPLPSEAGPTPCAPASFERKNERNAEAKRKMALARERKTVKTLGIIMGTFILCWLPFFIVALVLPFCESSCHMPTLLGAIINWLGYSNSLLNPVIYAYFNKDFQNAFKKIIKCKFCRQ
Kind of data set: Radioligand binding ([3H]8-OH-DPAT) to 5-HT1A receptors in post-mortem human hippocampus membranes.

Another data set concerns the target T2, 5-HT2A receptors (Homo sapiens, UniProt P28223).
T2 construct: 5-HT1A and 5-HT2A receptors in post-mortem human brain tissue from the hippocampus and frontal cortex, respectively; tissue Edinburgh Sudden Death Brain Bank; host or cells: post-mortem human frontal cortex membranes
Kind of data set: Radioligand binding ([3H]MDL-100,907) to 5-HT2A receptors in post-mortem human frontal cortex membranes.

Data set [1] is described as follows: Pharmacokinetics of 5-MeO-DMT and bufotenine after inhalation of 5-MeO-DMT in subjects. The format is in vivo, human.

Consider three compounds from patent publication US20250213533A1 (GH RESEARCH IRELAND LIMITED, priority 2022, published 2025).

Each structure is given as a SMILES string.

T2 sequence (P28223 whole entry): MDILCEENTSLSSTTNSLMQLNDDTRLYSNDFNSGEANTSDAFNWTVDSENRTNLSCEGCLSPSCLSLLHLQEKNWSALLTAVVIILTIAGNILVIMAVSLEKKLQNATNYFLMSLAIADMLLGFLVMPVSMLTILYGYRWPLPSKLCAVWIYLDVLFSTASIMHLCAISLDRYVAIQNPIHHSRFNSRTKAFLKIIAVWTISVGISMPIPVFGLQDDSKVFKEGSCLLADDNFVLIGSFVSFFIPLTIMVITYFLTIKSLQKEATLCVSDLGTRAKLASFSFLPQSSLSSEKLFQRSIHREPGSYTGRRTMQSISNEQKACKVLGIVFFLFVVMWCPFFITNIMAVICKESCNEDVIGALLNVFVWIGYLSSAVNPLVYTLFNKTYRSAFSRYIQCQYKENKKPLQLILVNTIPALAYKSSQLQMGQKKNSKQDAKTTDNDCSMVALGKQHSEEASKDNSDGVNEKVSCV

Turning to `CN(C)CCc1c[nH]c2ccccc12` [DMT, N,N-dimethyltryptamine], the “affinity for 5-HT1A receptors (in words)” value at 5-HT1A receptors is given as “moderate affinity”. Besides, the “affinity for 5-HT2A receptors (in words)” value at 5-HT2A receptors was “comparatively weak affinity”.
As to `CN(C)CCc1c[nH]c2cccc(O)c12` [psilocin], on 5-HT1A receptors, the “affinity for 5-HT1A receptors (in words)” value is “moderate affinity”. Further, the “affinity for 5-HT2A receptors (in words)” value at 5-HT2A receptors is recorded as “moderate/strong affinity”.
As for `CN(C)CCc1c[nH]c2ccc(O)cc12` [bufotenine], the “bufotenine blood concentration above LLOQ (25 pg/ml)” value in data set [1] (metabolite after inhaled 5-MeO-DMT) was “Only in few samples”. The “bufotenine observations when uptitration subjects were included” value in data set [1] (uptitration scheme) was “Substantially similar observations”.
